Measurements as given in patent US10472386B2, “Bile acid derivatives as FXR agonists and methods of use thereof” (priority 2017, dated 2019).

Target: T1, human FXR (NR1H4) (Homo sapiens, UniProt Q96RI1)
T1 sequence (Q96RI1 1-486): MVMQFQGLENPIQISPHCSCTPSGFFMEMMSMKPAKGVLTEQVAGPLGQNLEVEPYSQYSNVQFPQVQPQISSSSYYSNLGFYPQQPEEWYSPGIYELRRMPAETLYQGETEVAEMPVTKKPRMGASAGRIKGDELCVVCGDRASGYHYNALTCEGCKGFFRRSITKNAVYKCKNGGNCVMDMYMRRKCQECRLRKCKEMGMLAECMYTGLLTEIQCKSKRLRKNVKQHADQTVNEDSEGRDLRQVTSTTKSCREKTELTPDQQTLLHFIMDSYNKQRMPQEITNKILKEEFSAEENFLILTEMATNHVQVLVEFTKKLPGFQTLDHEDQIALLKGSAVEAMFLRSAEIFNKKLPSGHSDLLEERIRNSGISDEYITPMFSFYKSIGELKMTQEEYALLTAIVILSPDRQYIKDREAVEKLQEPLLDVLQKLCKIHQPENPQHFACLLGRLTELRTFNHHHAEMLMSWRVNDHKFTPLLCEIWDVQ
Assay: Human FXR (NR1H4) Assay (Gal4 promoter driven luciferase reporter, Indigo Bioscience kit IB00601)
Format: cell-based
Conditions: FXR agonistic potency; CHO reporter cells expressing human NR1H4; 22 hours incubation; luciferase readout
From the text: Determination of a ligand mediated Gal4 promoter driven transactivation to quantify ligand binding mediated activation of FXR. FXR Reporter Assay kit purchased from Indigo Bioscience (Catalogue number: IB00601) to determine the potency and efficacy of compound developed by Enanta that can induce FXR activation. The principle application of this reporter assay system is to quantify functional activity of human FXR. The assay utilizes non-human mammalian cells, CHO (Chinese hamster ovary) cells engineered to express human NR1H4 protein (referred to as FXR). Reporter cells also incorporate the cDNA encoding beetle luciferase which catalyzes the substrates and yields photon emission. Luminescence intensity of the reaction is quantified using a plate-reading luminometer, Envision. Reporter Cells include the luciferase reporter gene functionally linked to an FXR responsive promoter. Thus, quantifying changes in luciferase expression in the treated reporter cells provides a sensitive surrogate measure of the changes in FXR activity. […] The assay is according to the manufacturer's instructions. In brief, the assay was performed in white, 96 well plates using final volume of 100 uL containing cells with different doses of compounds. Retrieve Reporter Cells from −80° C. storage. Perform a rapid thaw of the frozen cells by transferring a 10 ml volume of 37° C. cell recovery medium into the tube of frozen cells. Recap the tube of Reporter Cells and immediately place it in a 37° C. water bath for 5-10 minutes. Retrieve the tube of Reporter Cell Suspension from the water bath. Sanitize the outside surface of the tube with a 70% alcohol swab, and then transfer it into the cell culture hood. Dispense 90 μl of cell suspension into each well of the 96-well Assay Plate. Transfer the plate into 37° C. incubator, allowing the cells adherent to the bottom of the well. Dilute compounds in Dilution Plate (DP), and administrate to cells at Assay Plate (AP). DMSO content of the samples was kept at 0.2%. Cells were incubated for additional 22 hours before luciferase activities were measured. Thirty minutes before intending to quantify FXR activity, remove Detection Substrate and Detection Buffer from the refrigerator and place them in a low-light area so that they may equilibrate to room temperature. Remove the plate's lid and discard all media contents by ejecting it into an appropriate waste container. Gently tap the inverted plate onto a clean absorbent paper towel to remove residual droplets. Cells will remain tightly adhered to well bottoms. Add 100 μl of luciferase detection reagent to each well of the assay plate. Allow the assay plate to rest at room temperature for at least 5 minutes following the addition of LDR. Set the instrument (Envision) to perform a single 5 second “plate shake” prior to reading the first assay well. Read time may be 0.5 second (500 mSec) per well.

`CC[C@H]1[C@@H](O)[C@@H]2[C@H](CC[C@]3(C)[C@@H]([C@H](C)COC(=O)NS(=O)(=O)c4ccc(OC(C)(C)C)cc4)CC[C@@H]23)[C@@]2(C)CC[C@@H](O)C[C@@H]12` [Example 24] and `CC[C@H]1[C@@H](O)[C@@H]2[C@H](CC[C@]3(C)[C@@H]([C@H](C)COC(=O)NS(=O)(=O)c4ccc(O[C@H](C)CC)cc4)CC[C@@H]23)[C@@]2(C)CC[C@@H](O)C[C@@H]12` [Example 17] cannot be ordered by EC50: < 1 nM for the first, < 1 nM for the second.

`CC[C@H]1[C@@H](O)[C@@H]2[C@H](CC[C@]3(C)[C@@H]([C@H](C)COC(=O)NS(=O)(=O)c4ccc5c(c4)CCC(C)(C)O5)CC[C@@H]23)[C@@]2(C)CC[C@H](O)C[C@@H]12` [Example 33] and `CC[C@H]1[C@@H](O)[C@@H]2[C@H](CC[C@]3(C)[C@@H]([C@H](C)COC(=O)NS(=O)(=O)c4ccc5c(c4)CCC(C)(C)O5)CC[C@@H]23)[C@@]2(C)CC[C@@H](O)C[C@@H]12` [Example 5] cannot be ordered by EC50: < 1 nM for the first, < 1 nM for the second.

`CC[C@H]1[C@@H](O)[C@@H]2[C@H](CC[C@]3(C)[C@@H]([C@H](C)COC(=O)NS(=O)(=O)c4ccc5c(c4)CC(C)(C)O5)CC[C@@H]23)[C@@]2(C)CC[C@@H](O)C[C@@H]12` [Example 6] and `CC[C@H]1[C@@H](O)[C@@H]2[C@H](CC[C@]3(C)[C@@H]([C@H](C)COC(=O)NS(=O)(=O)c4ccc5c(c4)CCC(C)(C)O5)CC[C@@H]23)[C@@]2(C)CCC(=O)C[C@@H]12` [Example 34] cannot be ordered by EC50: < 1 nM for the first, < 1 nM for the second.

Compared with `C[C@H](COC(=O)NS(=O)(=O)c1ccc(OC(C)(C)C)cc1)[C@H]1CC[C@H]2[C@@H]3[C@H](O)C[C@@H]4C[C@H](O)CC[C@]4(C)[C@H]3CC[C@]12C` [Example 2], `CC[C@H]1[C@@H](O)[C@@H]2[C@H](CC[C@]3(C)[C@@H]([C@H](C)COC(=O)NS(=O)(=O)c4ccc(OC5(C)CC5)cc4)CC[C@@H]23)[C@@]2(C)CC[C@@H](O)C[C@@H]12` [Example 29] is lower in EC50: 10 to 100 nM for the first, < 1 nM for the second. The second is the more potent here.

First: CC[C@H]1[C@@H](O)[C@@H]2[C@H](CC[C@]3(C)[C@@H]([C@H](C)COC(=O)NS(=O)(=O)c4ccc(OC5CCCC5)cc4)CC[C@@H]23)[C@@]2(C)CC[C@@H](O)C[C@@H]12 [Example 9]
Second: CC[C@H]1[C@@H](O)[C@@H]2[C@H](CC[C@]3(C)[C@@H]([C@H](C)COC(=O)NS(=O)(=O)c4ccc(OC5CCCCC5)cc4)CC[C@@H]23)[C@@]2(C)CC[C@@H](O)C[C@@H]12 [Example 11]
The EC50 of the first is lower: < 1 nM for the first, 1 to 10 nM for the second. The first is the more potent here.

First: CCCOc1ccc(S(=O)(=O)NC(=O)OC[C@@H](C)[C@H]2CC[C@H]3[C@@H]4[C@H](O)[C@H](CC)[C@@H]5C[C@H](O)CC[C@]5(C)[C@H]4CC[C@]23C)cc1 [Example 15]
Second: CCCCOc1ccc(S(=O)(=O)NC(=O)OC[C@@H](C)[C@H]2CC[C@H]3[C@@H]4[C@H](O)[C@H](CC)[C@@H]5C[C@H](O)CC[C@]5(C)[C@H]4CC[C@]23C)cc1 [Example 21]
The EC50 of the first is lower: < 1 nM for the first, 1 to 10 nM for the second.

First: CC[C@H]1[C@@H](O)[C@@H]2[C@H](CC[C@]3(C)[C@@H]([C@H](C)COC(=O)NS(=O)(=O)c4ccc(OC(F)(F)C(F)(F)F)cc4)CC[C@@H]23)[C@@]2(C)CC[C@@H](O)C[C@@H]12 [Example 30]
Second: CC[C@H]1[C@@H](O)[C@@H]2[C@H](CC[C@]3(C)[C@@H]([C@H](C)COC(=O)NS(=O)(=O)c4ccc(OC5(C)CCCC5)cc4)CC[C@@H]23)[C@@]2(C)CC[C@@H](O)C[C@@H]12 [Example 10]
The EC50 of the first is higher: 1 to 10 nM for the first, < 1 nM for the second. The second is the more potent here.

Work on `CC[C@H]1[C@@H](O)[C@@H]2[C@H](CC[C@]3(C)[C@@H]([C@H](C)COC(=O)NS(=O)(=O)c4cnc(OC(C)C)nc4)CC[C@@H]23)[C@@]2(C)CC[C@@H](O)C[C@@H]12` [Example 28] yielded an EC50 of 10 to 100 nM.
